According to BindingDB's records for doi:10.1124/jpet.104.081562 (Mayo Clinic, 2005):

Each molecule was assayed against T1, Promotilin (Homo sapiens, UniProt P12872).
T1 sequence (P12872 whole entry): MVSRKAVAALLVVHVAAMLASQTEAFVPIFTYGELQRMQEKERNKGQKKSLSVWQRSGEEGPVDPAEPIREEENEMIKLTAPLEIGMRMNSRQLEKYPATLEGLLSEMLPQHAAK
With CC[C@H](C)[C@H](NC(=O)[C@H](CCCN=C(N)N)NC(=O)[C@H](CCC(N)=O)NC(=O)[C@H](CC(C)C)NC(=O)[C@H](CCC(=O)O)NC(=O)CNC(=O)[C@H](Cc1ccc(O)cc1)NC(=O)[C@@H](NC(=O)[C@H](Cc1ccc(C(=O)c2ccccc2)cc1)NC(=O)[C@@H](NC(=O)[C@@H]1CCCN1C(=O)[C@@H](NC(=O)[C@@H](N)Cc1ccccc1)C(C)C)[C@@H](C)CC)[C@@H](C)O)C(=O)N[C@@H](CCC(N)=O)C(=O)N[C@@H](CCC(=O)O)C(=O)N[C@@H](CCCCN)C(=O)N[C@@H](CCC(=O)O)C(=O)N[C@@H](CCCN=C(N)N)C(=O)N[C@@H](CC(N)=O)C(=O)N[C@@H](CCCCN)C(=O)NCC(=O)N[C@@H](CCC(N)=O)C(=O)O [[L-Bpa5,Ile13]Motilin] the Ki was 50 nM.
For CC[C@H](C)[C@H](NC(=O)[C@H](CCCN=C(N)N)NC(=O)[C@H](CCC(N)=O)NC(=O)[C@H](CC(C)C)NC(=O)[C@H](CCC(=O)O)NC(=O)CNC(=O)[C@H](Cc1ccc(O)cc1)NC(=O)[C@@H](NC(=O)[C@@H](Cc1ccc(C(=O)c2ccccc2)cc1)NC(=O)[C@@H](NC(=O)[C@@H]1CCCN1C(=O)[C@@H](NC(=O)[C@@H](N)Cc1ccccc1)C(C)C)[C@@H](C)CC)[C@@H](C)O)C(=O)N[C@@H](CCC(N)=O)C(=O)N[C@@H](CCC(=O)O)C(=O)N[C@@H](CCCCN)C(=O)N[C@@H](CCC(=O)O)C(=O)N[C@@H](CCCN=C(N)N)C(=O)N[C@@H](CC(N)=O)C(=O)N[C@@H](CCCCN)C(=O)NCC(=O)N[C@@H](CCC(N)=O)C(=O)O [[D-Bpa5,Ile13]Motilin], the Ki was 420 nM.
Work on CC[C@H](C)[C@H](NC(=O)[C@@H]1CCCN1C(=O)[C@@H](NC(=O)[C@@H](N)Cc1ccccc1)C(C)C)C(=O)N[C@@H](Cc1ccccc1)C(=O)N[C@H](C(=O)N[C@@H](Cc1ccc(O)cc1)C(=O)NCC(=O)N[C@@H](CCC(=O)O)C(=O)N[C@@H](CC(C)C)C(=O)N[C@@H](CCC(N)=O)C(=O)N[C@@H](CCCNC(=N)N)C(=O)N[C@@H](CCSC)C(=O)N[C@@H](CCC(N)=O)C(=O)N[C@@H](CCC(=O)O)C(=O)N[C@@H](CCCCN)C(=O)N[C@@H](CCC(=O)O)C(=O)N[C@@H](CCCNC(=N)N)C(=O)N[C@@H](CC(N)=O)C(=O)N[C@@H](CCCCN)C(=O)NCC(=O)N[C@@H](CCC(N)=O)C(=O)O)[C@@H](C)O [CAS_52906-92-0] yielded a Ki of 2.3 nM.
